According to PMC6954722 (Stem Cells Translational Medicine, 2019):

Target: Smoothened (Mus musculus, UniProt P56726)
Experiment: displacement of BODIPY-cyclopamine
Format: cell-based

Chain of Smoothened (P56726 33-793): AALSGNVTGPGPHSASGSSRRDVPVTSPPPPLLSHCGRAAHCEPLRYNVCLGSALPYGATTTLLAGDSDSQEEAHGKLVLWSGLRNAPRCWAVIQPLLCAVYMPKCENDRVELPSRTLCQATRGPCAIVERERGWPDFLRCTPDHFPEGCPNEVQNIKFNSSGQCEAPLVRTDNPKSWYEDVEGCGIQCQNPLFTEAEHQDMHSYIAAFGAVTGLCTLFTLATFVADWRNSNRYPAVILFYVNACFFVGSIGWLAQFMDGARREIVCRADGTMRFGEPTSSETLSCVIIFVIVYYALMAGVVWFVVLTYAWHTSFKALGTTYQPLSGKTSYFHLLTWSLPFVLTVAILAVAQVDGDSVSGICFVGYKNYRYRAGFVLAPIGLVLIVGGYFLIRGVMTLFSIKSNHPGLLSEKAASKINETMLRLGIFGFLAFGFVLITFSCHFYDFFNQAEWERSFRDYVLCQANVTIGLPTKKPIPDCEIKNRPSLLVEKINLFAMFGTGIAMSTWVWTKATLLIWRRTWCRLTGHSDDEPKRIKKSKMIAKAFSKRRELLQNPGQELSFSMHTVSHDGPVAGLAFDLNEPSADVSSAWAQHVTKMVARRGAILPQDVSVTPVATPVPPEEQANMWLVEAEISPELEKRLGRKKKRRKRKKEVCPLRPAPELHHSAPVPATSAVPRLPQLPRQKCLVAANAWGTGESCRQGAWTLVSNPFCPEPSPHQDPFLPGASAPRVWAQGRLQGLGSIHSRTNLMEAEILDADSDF

IC50: 88 ± 3.7 µM
Structure (SMILES): O=[N+]([O-])c1ccc(S(=O)(=O)N2CCN(c3ccccc3)CC2)cc1 [compound #5, 1‐[(4‐nitrophenyl)sulfonyl]‐4‐phenylpiperazine]
